Values quoted from earlier work in publication PMC6503469, “The Use of Molecular Descriptors To Model Pharmaceutical Uptake by a Fish Primary Gill Cell Culture Epithelium” (Environmental Science & Technology, 2018).
Counter-ions that a name gives are not always drawn. Like-named read-outs stand apart in the source and are kept apart here.

Assays:
[1] = source not stated; for PSA: polar surface area; for pKa: molecular descriptor; for log D: octanol–water distribution coefficient at pH 7.4; for log Kow: octanol–water partition coefficient; for log S: molecular descriptor (solubility)
[2] = design: method as in PMID 28853873; details: adult zebrafish
[3] = not given; remark: listed apart in the source
[4] = design: method as in Chen et al 2017; details: pH 7.6, after 6h exposure to 12.5 µg/L; ref Chen et al 2017
[5] = design: method as in Nallani et al 2012; details: pH 7.4, exposed to 83 µg/L for 7 days; ref Nallani et al 2012

**Q.** With `CC(=O)Nc1nnc(S(N)(=O)=O)s1` [acetazolamide] as the compound, how does the PSA [1] read?
**A.** 115.04 Å^2

**Q.** With `C[C@H]1C[C@H]2[C@@H]3CCC4=CC(=O)C=C[C@]4(C)[C@@]3(Cl)[C@@H](O)C[C@]2(C)[C@@]1(O)C(=O)CO` [beclomethasone] as the compound, how does the pKa [1] read?
**A.** 13.85

**Q.** And the “log D” value [1]?
**A.** 4.16

**Q.** What about the “log Kow” value [1] of the same compound?
**A.** 3.49

**Q.** And the PSA [1]?
**A.** 106.97 Å^2

**Q.** And the Plasma concentration (pH 7.4, 21 days exposure to 816 ng/L, dipropionate rapidly metabolized, combined values, ref Margiotta-Casaluci et al. 2016)?
**A.** 60 ± 35 ng/mL

**Q.** With `NC(=O)N1c2ccccc2C=Cc2ccccc21` [carbamazepine] as the compound, how does the “log S” value [1] read?
**A.** –3.2

**Q.** And the “log D” value [1]?
**A.** 2.28

**Q.** And the “log Kow” value [1]?
**A.** 2.28

**Q.** And the PSA [1]?
**A.** 46.33 Å^2

**Q.** And the BCFss [2]?
**A.** 1.41 ± 7.13 L kg^–1

**Q.** And the Plasma concentration ([3]; pH 7.7, after 10 days exposed to 43 µg/L, ref Lahti et al 2011)?
**A.** 25 ng/mL

**Q.** Which results are given for `O=C(O)Cc1ccccc1Nc1c(Cl)cccc1Cl` [diclofenac, diclofenac sodium salt]?
**A.** log S [1]: –4.8; log D [1]: 1.22; log Kow [1]: 1.9; PSA [1]: 52.16 Å^2; Plasma concentration (pH 7.6, after 48h exposure to 24 µg/L, ref Bickley et al 2017): 205 ng/mL; Plasma concentration (pH 7.6, after 21 days exposed to 0.95 µg/L, ref Bickley et al 2017): 26 ng/mL

**Q.** Which “log S” value [1] does the source give for `Cc1ccc(C)c(OCCCC(C)(C)C(=O)O)c1` [gemfibrozil] here?
**A.** –4

**Q.** And the pKa [1]?
**A.** 4.42

**Q.** What about the “log D” value [1] of the same compound?
**A.** 1.40

**Q.** What about the “log Kow” value [1] of the same compound?
**A.** 4.77

**Q.** What about the PSA [1] of the same compound?
**A.** 46.53 Å^2

**Q.** And the Plasma concentration [4]?
**A.** 183 ng/mL

**Q.** Which “log S” value [1] does the source give for `CC(C)Cc1ccc(C(C)C(=O)O)cc1` (centres unmarked) [ibuprofen, ibuprofen sodium salt] here?
**A.** –3.5

**Q.** What about the “log D” value [1] of the same compound?
**A.** 0.29

**Q.** And the “log Kow” value [1]?
**A.** 2.48

**Q.** And the PSA [1]?
**A.** 40.10 Å^2

**Q.** And the Plasma concentration (pH 7.4, after 24h exposed to 107 µg/L, ref Patel et al 2016)?
**A.** 550 ng/mL

**Q.** With `CC(C(=O)O)c1cccc(C(=O)c2ccccc2)c1` (centres unmarked) [ketoprofen] as the compound, how does the “log D” value [1] read?
**A.** 0.06

**Q.** And the “log Kow” value [1]?
**A.** 0.97

**Q.** And the PSA [1]?
**A.** 54.37 Å^2

**Q.** And the Plasma concentration ([3]; pH 7.4, after 14 days exposure to 91 µg/L, ref Cuklev et al 2012)?
**A.** 1 ng/mL

**Q.** Which Plasma concentration [5] does the source give for `C#C[C@]1(O)CC[C@H]2[C@@H]3CCC4=CC(=O)CC[C@@H]4[C@H]3CC[C@@]21C` [norethindrone, norethindrone-19] here?
**A.** 950 ng/mL

**Q.** What about the pKa [1] of the same compound?
**A.** 17.59

**Q.** And the “log D” value [1]?
**A.** 2.98

**Q.** What about the “log Kow” value [1] of the same compound?
**A.** 3.15

**Q.** And the PSA [1]?
**A.** 37.30 Å^2

**Q.** With `CC(=O)CC(c1ccccc1)c1c(O)c2ccccc2oc1=O` (centres unmarked) [warfarin] as the compound, how does the “log S” value [1] read?
**A.** –3.8

**Q.** What about the pKa [1] of the same compound?
**A.** 5.08

**Q.** What about the “log D” value [1] of the same compound?
**A.** 0.16
